Assay [1] deals with P190L heterozygous mutant strain seedlings. Put plainly: Identification of herbicide resistance spectrum. The class given is in vivo, watermelon. Particulars: leaf spray, tribenuron 15, halosulfuron 33.75, bensulfuron 22.5, pyrazosulfuron 24, flumetsulam 48, flucarbazone 31.5 g ai/ha, 7 days. An excerpt:
(§1) Watermelon seeds to be tested are seeds of non-transgenic watermelon, seeds of P190L homozygous mutant strain, seeds of P190S homozygous mutant strain, seeds of P190L heterozygous mutant strain, or seeds of P190S heterozygous mutant strain.
(§2) The experiment was repeated three times, and the steps for each are as follows:
(§3) 1. Planting 5 watermelon seeds to be tested in the field and culturing routinely for 10 days until the cotyledons are flattened to obtain the watermelon seedlings to be tested.
(§4) 2. After step 1 is completed, taking the watermelon seedlings to be tested and spraying the leaves with tribenuron, halosulfuron, bensulfuron, pyrazosulfuron, flumetsulam, and flucarbazone, respectively (spraying dose of tribenuron, halosulfuron, bensulfuron, pyrazosulfuron, flumetsulam, and flucarbazone were 15, 33.75, 22.5, 24, 48, and 31.5 g ai/ha; g represents gram, ai represents the active ingredient, ha represents hectare), and then culturing for 7 days to observe the growth status of the watermelon seedling to be tested.
(§5) 3. After step 1 is completed, taking the watermelon seedlings to be tested, spraying the leaves with the same volume of water as the herbicide in step 2, and then culturing for 7 days, to observe the growth status of the watermelon seedlings as a control.

Assay [2] has as its system P190S heterozygous mutant strain seedlings. Briefly: Identification of herbicide resistance spectrum. It is filed as in vivo, watermelon. Conditions: leaf spray, tribenuron 15, halosulfuron 33.75, bensulfuron 22.5, pyrazosulfuron 24, flumetsulam 48, flucarbazone 31.5 g ai/ha, 7 days.
Source text: as §1, §2, §3, §4, §5

In assay [3] the test system is P190L homozygous mutant strain seedlings. Put plainly: Identification of herbicide resistance spectrum. The class given is in vivo, watermelon. Particulars: leaf spray, tribenuron 15, halosulfuron 33.75, bensulfuron 22.5, pyrazosulfuron 24, flumetsulam 48, flucarbazone 31.5 g ai/ha, 7 days.
Source text: as §1, §2, §3, §4, §5

Assay [4] has as its system P190S homozygous mutant strain seedlings. Briefly: Identification of herbicide resistance spectrum. It is filed as in vivo, watermelon. Conditions: leaf spray, tribenuron 15, halosulfuron 33.75, bensulfuron 22.5, pyrazosulfuron 24, flumetsulam 48, flucarbazone 31.5 g ai/ha, 7 days.
Source text: as §1, §2, §3, §4, §5

Assay [5] relates to P190L heterozygous mutant strain seedlings. Put plainly: Identification of resistance to the herbicide tribenuron, seedlings sprayed in the field. It is filed as in vivo, watermelon. Conditions: leaf spray 17 g ai/ha, observed 7 days. The source says:
(§6) The watermelon seeds to be tested are seeds of non-transgenic watermelon, seeds of P190L homozygous mutant strains, seeds of P190S homozygous mutant strains, seeds of P190L heterozygote mutant strains, or seeds of P190S heterozygote mutant strains.
(§7) The experiment was repeated three times, and the steps for each were as follows:
(§8) 1. Planting 20 watermelon seeds to be tested in the field and culturing routinely to obtain watermelon seedlings to be tested in a two-leaf one-heart period.
(§9) 2. After step 1 is completed, taking the watermelon seedlings to be tested, spraying the leaves with tribenuron (the spraying dose is 17 g ai/ha; g represents gram, ai represents the active ingredient, and ha represents hectare), and then culturing routinely for 7 days to observe the growth status of the watermelon seedlings to be tested.

The test system of assay [6] is P190S heterozygous mutant strain seedlings. The description is as above. The class given is in vivo, watermelon. Conditions: leaf spray 17 g ai/ha, observed 7 days.
Source text: as §6, §7, §8, §9

In assay [7] the test system is P190L homozygous mutant strain seedlings. The description is as above. The class given is in vivo, watermelon. Particulars: leaf spray 17 g ai/ha.
Source text: as §6, §7, §8, §9

Assay [8] concerns P190S homozygous mutant strain seedlings. Described as above. The class given is in vivo, watermelon. Particulars: leaf spray 17 g ai/ha.
Source text: as §6, §7, §8, §9

In assay [9] the test system is non-transgenic watermelon seedlings. The description is as above. The class given is in vivo. Particulars: leaf spray 17 g ai/ha.
Source text: as §6, §7, §8, §9

On to `COc1cc(OC)nc(NC(=O)NS(=O)(=O)Cc2ccccc2C(=O)O)n1` [bensulfuron], for which the “resistance of seedlings to the herbicide compared with non-transgenic watermelon” value in [1], in assay [2], in assay [3] and in assay [4] was “obvious resistance” each time.

As for `COc1nn(C(=O)NS(=O)(=O)c2ccccc2OC(F)(F)F)c(=O)n1C` [flucarbazone], the “resistance of seedlings to the herbicide compared with non-transgenic watermelon” value in [1], in [2], in assay [3] and in assay [4] was “obvious resistance” in each case.

In the case of `Cc1ccn2nc(S(=O)(=O)Nc3c(F)cccc3F)nc2n1` [flumetsulam], the “resistance of seedlings to the herbicide compared with non-transgenic watermelon” value in assay [1], in assay [2], in [3] and in assay [4] was “obvious resistance” throughout.

For `COc1cc(OC)nc(NC(=O)NS(=O)(=O)c2c(C(=O)O)c(Cl)nn2C)n1` [halosulfuron], the “resistance of seedlings to the herbicide compared with non-transgenic watermelon” value in [1], in [2], in [3] and in assay [4] was “obvious resistance” throughout.

Regarding `COc1cc(OC)nc(NC(=O)NS(=O)(=O)c2c(C(=O)O)cnn2C)n1` [pyrazosulfuron], the “resistance of seedlings to the herbicide compared with non-transgenic watermelon” value in [1], in [2], in assay [3] and in [4] was “obvious resistance” in each case.

As to `COc1nc(C)nc(N(C)C(=O)NS(=O)(=O)c2ccccc2C(=O)O)n1` [tribenuron], the “growth status of the watermelon seedlings after spraying” value in [5] was “grew normally”; in assay [6], “grew normally”; in assay [7] (observed 7 days), “grew normally”; in assay [8] (observed 7 days), “grew normally”; in [9] (two-leaf one-heart period, observed 7 days), “died quickly”. Besides, the “growth after spraying compared with seedlings of the heterozygous mutant strains” value in assay [7] (7 days) and in [8] (7 days) was “grew better” in each case. The “resistance of seedlings to the herbicide compared with non-transgenic watermelon” value in assay [1], in assay [2], in assay [3] and in assay [4] was “obvious resistance” in each case. For the same molecule, the “time to death of seedlings after spraying” value in assay [9] was in the range of 3 to 7 days.

These data come from patent US20200340007A1, “CLALS PROTEIN, ITS CODING GENE AND USE IN PREDICTING THE HERBICIDE RESISTANCE OF WATERMELON” (BEIJING ACADEMY OF AGRICULTURE AND FORESTRY SCIENCES, priority 2018, published 2020).
